Measurements as given in US4087461A, “Anti-androgenic steroids” (The Johns Hopkins University, priority 1977, dated 1978).

How the values were obtained:
[1] = tested on: androgen biosynthesis stimulated by human chorionic gonadotropin; assay: study in hypophysectomized rats stimulated with human chorionic gonadotropin: ventral prostate weight; format: in vivo, hypophysectomized male Sprague-Dawley rats
Method: In order to assess the action of the estryne in the presence of exogenous stimulation of androgen synthesis, hypophysectomized male rats received estryne 3.0 mg (0.2 ml sesame oil) sc and/or human chorionic gonadotropin 2 units and 4 units (0.9% saline) sc daily for 7 days. Sacrifice and weighing of the organs was performed on the eighth day.
The wet weight of the ventral prostate was decreased (20-25%) in hypophysectomized animal receiving estryne (12mg/kg body weight) and HGG (2 units) as compared to controls receiving just HGG (2 units).

[2] = tested on: competition with testosterone at the target tissue; assay: study in castrate rats receiving testosterone propionate: prostatic weight; format: in vivo, male Sprague-Dawley rats (castrated); settings: estryne 12mg/kg i.p. and testosterone propionate 0.3mg daily for seven days; castrated 10 days prior
Method: To determine if the estryne competes with testosterone at the target tissue rats were orchiectomized under ether anesthesia via the scrotal route 10 days prior to treatment. Testosterone propionate 0.3 mg (0.2 ml sesame oil) was administered daily for 7 days subcutaneously. Estryne 12 mg/kg (0.2 ml propylene glycol) was given daily for 7 days interperitioneally. Control groups received either testosterone propionate (0.3 mg) or carrier oil daily for 7 days. The animals were sacrificed on the eighth day and the organs were weighed.
Animals castrated 10 days prior to treatment received both estryne (12mg/kg weight) and testosterone propionate (0.3mg) daily for seven days.

immature uterus = assay: study of estrogenic activity (uterine weight of immature mice); settings: 100 μg total dose over three days, sc
Method: The animals were housed in a temperature controlled room under a constant lighting schedule and maintained on a diet of Charles River Rat Formula and water ad libitum. The diet of the hypophy-sectomized animals was supplemented with organges.
On the fourth day the uteri were removed and weighed.
Thus, immature female mice received estryne at doses up to a maximum of 100 μg total dose over three days, and the wet weight of the uteri were determined.

C[C@]12CC[C@@H]3C(=O)CCC(=O)CC#CC[C@H]3[C@@H]1CCC2=O [Compound 1, 5,10-secoestr-5-yne-3,10,17-trione]
decrease in wet weight of the ventral prostate ([1]; estryne 12mg/kg body weight and HCG 2 units, vs controls receiving HCG 2 units only, 7 days): 20-25%
effect on ventral prostate weight at higher doses of HCG ([1]; higher doses of HCG, in words): less pronounced
depression of prostatic weight [2]: No significant depression of prostatic weight
stimulation of the immature uterus (immature uterus): no stimulation of the immature uterus
